# Read-outs that look alike come from different tables or passages of the source.
# Legend:
# [1] = system: CAM of chicken embryos; conditions: 48 h; for Positive/Total: methylcellulose disc
# Experimental: Fertilized chick eggs were incubated horizontally at 38 °C in a humidified incubator, windowed by day 3 of incubation, and processed by day 8. […] Then, methylcellulose discs were implanted onto the CAM, and the eggs were sealed with adhesive tape and returned to the incubator for 48 h. Negative controls were always made with DMSO mixed with the methylcellulose, and aeroplysinin-1 (3 nmol/CAM) was used as a routine positive control of antiangiogenic compound [47]. After the incubation, the CAM was examined under a stereomicroscope and photographed with a Nikon DS-Ri2 camera. The results were analyzed by two different observers, and the assay was scored positive when both of them reported a significant reduction of vessels in the treated area.
# [2] = system: already formed BAEC tubular-like structures; experiment: Vascular disruption assay in vitro (already formed tubular-like structures on Matrigel); assay type: cell-based, bovine; conditions: 90 min; even at a concentration 10-fold higher than the MIC of the tube formation assay
# Experimental: (§1) Cellular suspensions of 5 × 10^4 BAE cells in serum-free DMEM were added to a 96-well plate coated with 50 µL of Matrigel (10.5 mg/mL) in the presence of the indicated treatments for 5 h and photographed with a microscope camera Nikon DS-Ri2 coupled to a Nikon Eclipse Ti microscope (Nikon, Tokyo, Japan). Each concentration was tested in duplicate, and staurosporine 2 µM was used as a routine positive assay control. For the disruption assay, tubular-like structures were formed following the same protocol for the control conditions; then, the indicated concentrations of Solo F–OH were added. After a further incubation time of 90 min, cultures were observed and photographed. Combretastatin-4-phosphate (CA4P) was used as positive control of the disruptor antiangiogenic drug.
# [3] = system: bovine aortic endothelial cells (BAEC); conditions: 72 h of treatment, proliferating conditions; ref [17]; cited from earlier work
# Source text: Table 1 Summary of the results obtained in the primary in vitro screening assays for the complete series of synthetic solomonamide precursors. BAEC: bovine aortic endothelial cells, MIC: minimum inhibitory concentration. | column: IC50 ^1 (μM) in BAEC [17]
# [4] = system: BAEC endothelial tubular-like structures formation; assay type: cell-based, bovine; conditions: 5 h
# Experimental: as §1
# [5] = system: BAEC invasion; experiment: Cell invasion assay on Matrigel-coated transwells; assay type: cell-based, bovine; conditions: 20% FBS in lower chamber, 16 h, read-out: Concentration reaching 50% of inhibition of BAEC invasion
# Experimental: The invasion of endothelial cells was assayed by using 8.0-μm pore size transwell inserts coated with 100 µL of Matrigel 0.12 mg/mL solution. 10^5 BAE cells, in the absence or presence of the indicated concentrations of Solo F–OH, were added to the upper chamber of the transwells in the absence of serum, and the lower chamber was filled with 20% FBS DMEM. After 16 h of incubation, invading cells were fixed in 4% paraformaldehyde and stained with a 1% crystal violet solution in 2% ethanol. Cells were photographed with a microscope camera Nikon DS-Ri2 coupled to a Nikon Eclipse Ti microscope (Nikon, Tokyo, Japan).
# [6] = system: MMP-2; experiment: Gelatin zymography of conditioned media and cell extracts of treated HT1080; assay type: cell-based, human; conditions: treated HT1080, 24 h
# Experimental: (§2) Zymographies for matrix metalloproteinases MMP-2 and MMP-9 activities were performed in both conditioned media and cellular extracts of endothelial (BAEC) and tumor (HT1080) cell lines as described in Fajardo et al.. Briefly, cells seeded in six-well plates were incubated in serum-free culture medium with 0.1% BSA containing 200 KIU of aprotinin/mL and the correspondent treatment. After 24 h of incubation, conditioned media were collected, and cell lysates were obtained. Duplicates were used to determine the cell number, and samples were normalized for equal loading. In order to detect the gelatinolytic activity of MMP-9 and MMP-2, samples were loaded in non-reducing SDS/PAGE gels containing gelatin (1 mg/mL). After electrophoresis, gels were incubated overnight at 37 °C in a substrate buffer (50 mM of Tris/HCl, pH 7.4, supplemented with 1% Triton X-100, 5 mM CaCl2, and 0.02% Na3N) and stained with Coomassie blue R-250. The bands of gelatinase activity could be detected as non-stained bands in a dark, stained background. The size and intensity of the bands were quantified using Image J software.
# [7] = system: MMP-9; experiment: as above; assay type: cell-based, human; conditions: treated HT1080, 24 h
# Experimental: as §2
# [8] = system: MMP-2; experiment: Gelatin zymography of conditioned media and cell extracts of treated BAEC; assay type: cell-based, bovine; conditions: 20 μM, 24 h
# Experimental: as §2
# [9] = biological target: human recombinant VEGFR2 (Homo sapiens, UniProt P35968); experiment: In vitro measure of VEGFR2 TK activity (luminescent VEGFR2 (KDR) Kinase Assay Kit); conditions: 20 μM, 45 min at 30 °C; mean ± SD of four independent measures
# [10] = system: subintestinal vessels (SIVs) of zebrafish embryos; experiment: FGF-2 induced angiogenesis zebrafish yolk membrane (ZFYM) assay; assay type: in vivo, zebrafish (Danio rerio); conditions: FGF-2 2 ng, 24 h
# [11] = system: Akt; experiment: Western blot of Akt phosphorylation in serum-induced BAEC; assay type: cell-based, bovine; conditions: 20 μM, 1 h treatment of starved BAEC, then 10% FBS for 10 min, two independent experiments
# Experimental: (§3) BAE cells were starved in serum-free for 16 h. After one-hour treatment with Solo F-OH at 10 and 20 μM in the same conditions, cells were induced with 10% of FBS for 10 min. Protein lysates were obtained in radioimmunoprecipitation assay buffer (RIPA) (50 mM of Tris, pH 7.4, 150 mM of NaCl, 1% Triton X-100, 0.25% sodium deoxycholate, 1 mM of EDTA) containing phosphatase activity inhibitors (30 mM of sodium fluoride, 1 mM of sodium orthovanadate, 30 mM of β-glycerophosphate) and protease activity inhibitors (Complete mini, Roche, Mannheim, Germany). Protein concentration was determined using the Lowry method. Samples were subjected to SDS-PAGE electrophoresis and transferred to nitrocellulose membranes. […] Following one hour of incubation with horseradish peroxidase-conjugated secondary antibodies (MERK; goat anti-rabbit IgG HRP Linked Whole Antibody #NA934V; goat anti-mouse IgG (whole molecule)–Peroxidase antibody #A4416) at room temperature, immunoreactive bands were detected with SuperSignal West Pico Chemiluminescent Substrate (Pierce, Rockford, USA) and quantified by ImageJ software. The phosphorylated/total protein ratios were expressed as the percentage of the ratio in serum-stimulated samples in the absence of Solo F–OH.
# [12] = biological target: T1, MMP-2 (Bos taurus, UniProt Q9GLE5); experiment: In situ inhibition of MMP-2 gelatinase activity (compound in zymography incubation buffer); assay type: biochemical, bovine; conditions: 20 μM in substrate buffer; conditioned media of untreated BAEC
# T1 construct: conditioned media and cellular extracts of endothelial (BAEC) and tumor (HT1080) cell lines; endogenous in cells; host or cells: BAEC (bovine aortic endothelial cells)
# T1 sequence (Q9GLE5 111-661): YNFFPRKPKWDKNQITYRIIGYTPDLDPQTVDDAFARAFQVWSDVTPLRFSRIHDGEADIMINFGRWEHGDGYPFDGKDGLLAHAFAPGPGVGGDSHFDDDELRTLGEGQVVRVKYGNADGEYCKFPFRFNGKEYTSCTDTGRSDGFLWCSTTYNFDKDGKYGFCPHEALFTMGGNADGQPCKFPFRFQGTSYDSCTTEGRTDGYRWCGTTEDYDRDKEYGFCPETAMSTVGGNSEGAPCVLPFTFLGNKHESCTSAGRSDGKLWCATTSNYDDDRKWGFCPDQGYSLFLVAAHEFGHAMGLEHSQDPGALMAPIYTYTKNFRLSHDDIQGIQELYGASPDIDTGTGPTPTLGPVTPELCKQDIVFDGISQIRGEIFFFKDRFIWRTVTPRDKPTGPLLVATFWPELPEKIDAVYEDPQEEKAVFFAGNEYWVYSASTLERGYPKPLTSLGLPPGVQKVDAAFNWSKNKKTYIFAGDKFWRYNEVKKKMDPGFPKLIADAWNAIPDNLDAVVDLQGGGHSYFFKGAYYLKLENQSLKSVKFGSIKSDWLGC
# Experimental: A variant of this method was used to obtain complementary information about the direct inhibition of the tested compound on MMP-2 gelatinase activity: samples of conditioned media of untreated BAEC were subjected to gelatin zymography and, after electrophoresis, 20 μM of Solo F–OH was added to the substrate buffer. Detection of the degrading bands and quantification were performed as described above.
# [13] = system: ERK1/2; experiment: Western blot of ERK1/2 phosphorylation in serum-induced BAEC; assay type: cell-based, bovine; conditions: 20 μM, 1 h treatment of starved BAEC, then 10% FBS for 10 min, two independent experiments
# Experimental: as §3
# Chain of human recombinant VEGFR2 (P35968 20-1356): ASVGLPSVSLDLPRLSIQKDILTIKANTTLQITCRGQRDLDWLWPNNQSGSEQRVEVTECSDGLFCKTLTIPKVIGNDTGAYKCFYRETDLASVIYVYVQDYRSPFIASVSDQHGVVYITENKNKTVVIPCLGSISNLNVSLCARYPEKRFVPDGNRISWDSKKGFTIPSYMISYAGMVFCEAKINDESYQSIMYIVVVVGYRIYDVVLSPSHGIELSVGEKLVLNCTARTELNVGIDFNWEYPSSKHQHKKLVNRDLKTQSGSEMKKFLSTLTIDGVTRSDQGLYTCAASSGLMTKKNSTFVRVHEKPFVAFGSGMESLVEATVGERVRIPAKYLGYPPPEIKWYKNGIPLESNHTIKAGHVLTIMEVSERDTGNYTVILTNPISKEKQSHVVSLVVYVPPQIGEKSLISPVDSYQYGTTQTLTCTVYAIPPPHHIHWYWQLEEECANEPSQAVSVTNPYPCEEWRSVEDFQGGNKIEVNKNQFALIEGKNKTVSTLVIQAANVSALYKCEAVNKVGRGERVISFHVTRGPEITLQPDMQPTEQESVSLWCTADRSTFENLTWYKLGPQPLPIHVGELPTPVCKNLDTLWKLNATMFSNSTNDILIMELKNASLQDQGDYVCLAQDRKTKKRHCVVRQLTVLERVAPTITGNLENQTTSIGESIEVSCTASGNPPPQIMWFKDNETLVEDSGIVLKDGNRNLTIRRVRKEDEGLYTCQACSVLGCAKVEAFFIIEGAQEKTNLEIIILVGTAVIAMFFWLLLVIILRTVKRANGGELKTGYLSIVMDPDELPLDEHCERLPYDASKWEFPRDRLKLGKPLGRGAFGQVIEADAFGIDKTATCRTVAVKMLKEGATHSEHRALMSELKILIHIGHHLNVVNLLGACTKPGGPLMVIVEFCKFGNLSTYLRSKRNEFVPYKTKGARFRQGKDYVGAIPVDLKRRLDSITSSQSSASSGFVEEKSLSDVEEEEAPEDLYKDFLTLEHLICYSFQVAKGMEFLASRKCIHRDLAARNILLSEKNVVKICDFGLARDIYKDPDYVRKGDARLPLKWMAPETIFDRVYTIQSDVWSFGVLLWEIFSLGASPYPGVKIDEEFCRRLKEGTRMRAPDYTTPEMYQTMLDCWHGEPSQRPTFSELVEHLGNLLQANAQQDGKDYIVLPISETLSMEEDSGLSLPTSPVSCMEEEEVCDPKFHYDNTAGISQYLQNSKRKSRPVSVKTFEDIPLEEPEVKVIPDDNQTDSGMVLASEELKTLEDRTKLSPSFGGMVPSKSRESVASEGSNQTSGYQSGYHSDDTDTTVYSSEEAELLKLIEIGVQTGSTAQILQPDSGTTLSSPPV
structure (smiles),measurement,setting,value
C[C@@H]1C(=O)NCC(=O)N[C@H](C)C(=O)Nc2cc(OCc3ccccc3)ccc2/C=C/C[C@@H]1O [Solo F–OH],Positive/Total,[1]; 0.1 nmol/CAM,1/7
same,Positive/Total,[1]; 0.5 nmol/CAM,2/7
same,Positive/Total,[1]; 1 nmol/CAM,6/9
same,Positive/Total,[1]; 5 nmol/CAM,9/12
same,Positive/Total,[1]; 10 nmol/CAM,10/10
same,Dose reaching 50% of inhibition of CAM neovascularization,[1]; CAM assay,lower than 1 nmol/CAM
same,Disruption of endothelial tubular-like structures already formed on Matrigel,[2],not able to disrupt
same,IC50,[3],18.1 ± 2.2 µM
same,MIC Tubular Like-Structures Formation,[4],1 µM
same,IC50,[5],~5 µM
same,MMP-2 activity in HT1080 cells,[6],decreased
same,MMP-9 activity in HT1080 cells,[7],decreased
same,Presence of MMP-2 in cell extracts and conditioned media of BAEC,[8],reduced
same,Remaining VEGFR2 kinase activity relative to vehicle control (DMSO),[9],84.5 ± 3.3%
same,"Score + / Total (mild response), %",[10]; compound 5 µM,36.8%
same,"Score + / Total (mild response), embryos",[10]; compound 5 µM,7/19
same,"Score ++ / Total (strong response), %",[10]; compound 5 µM,15.8%
same,"Score ++ / Total (strong response), embryos",[10]; compound 5 µM,3/19
same,"Score – / Total (no response to FGF-2), %",[10]; compound 5 µM,47.4%
same,"Score – / Total (no response to FGF-2), embryos",[10]; compound 5 µM,9/19
same,"Score + / Total (mild response), %",[10]; compound 10 µM,39.1%
same,"Score + / Total (mild response), embryos",[10]; compound 10 µM,9/23
same,"Score ++ / Total (strong response), %",[10]; compound 10 µM,4.3%
same,"Score ++ / Total (strong response), embryos",[10]; compound 10 µM,1/23
same,"Score – / Total (no response to FGF-2), %",[10]; compound 10 µM,56.5%
same,"Score – / Total (no response to FGF-2), embryos",[10]; compound 10 µM,13/23
same,Phosphorylation of Akt in the presence of serum,[11],substantially reduced
same,MMP-2 degradation bands with compound in incubation buffer,[12],unaffected
same,Phosphorylation of ERK1/2 in the presence of serum,[13],substantially reduced
C[C@H]1NC(=O)CNC(=O)CCC/C=C/c2ccc(OCc3ccccc3)cc2NC1=O [Solo-4],IC50,[3],69.6 ± 12.5 µM
same,MIC Tubular Like-Structures Formation,[4],50 µM
C[C@H]1NC(=O)CNC(=O)CC/C=C/C(O)c2ccccc2NC1=O (stereo partly drawn) [Solo-6],IC50,[3],> 100 µM
same,MIC Tubular Like-Structures Formation,[4],>50 µM
C[C@H]1NC(=O)CNC(=O)CC/C=C/Cc2ccc(OCc3ccccc3)cc2NC1=O [Solo-2],IC50,[3],43.8 ± 1.2 µM
same,MIC Tubular Like-Structures Formation,[4],>50 µM
C[C@H]1NC(=O)CNC(=O)CC/C=C/Cc2ccc(O)cc2NC1=O [Solo-5],IC50,[3],> 100 µM
same,MIC Tubular Like-Structures Formation,[4],>50 µM
C[C@H]1NC(=O)CNC(=O)CC/C=C/Cc2ccccc2NC1=O [Solo-1],IC50,[3],> 100 µM
same,MIC Tubular Like-Structures Formation,[4],>50 µM
